Data taken from the NIST ThermoML archive (doi:10.1021/je5010214).
Numbers after ± are expanded uncertainties.

Conditions: Liquid, Vibrating tube method

CCCCCCC [heptane]
Conditions	mass density [kg/m3]
323.15 K, 34081 kPa	690.434 ± 0.95
323.15 K, 35113 kPa	691.624 ± 0.95
323.15 K, 37953 kPa	693.659 ± 0.97
323.15 K, 42011 kPa	696.516 ± 0.99
323.15 K, 48025 kPa	700.814 ± 1
323.15 K, 49934 kPa	702.105 ± 1
323.15 K, 52114 kPa	703.681 ± 1.1
323.15 K, 54964 kPa	705.509 ± 1.1
323.15 K, 58045 kPa	707.475 ± 1.1
323.15 K, 60050 kPa	708.827 ± 1.1
323.15 K, 62131 kPa	710.008 ± 1.1
323.15 K, 64999 kPa	711.842 ± 1.1
323.16 K, 920.7 kPa	659.343 ± 0.82
323.16 K, 27958 kPa	685.975 ± 0.92
323.16 K, 30055 kPa	687.083 ± 0.93
323.16 K, 33067 kPa	689.946 ± 0.94
323.16 K, 40047 kPa	695.097 ± 0.98
323.16 K, 44937 kPa	698.783 ± 1
323.16 K, 66131 kPa	712.551 ± 1.1
328.15 K, 100.8 kPa	653.868 ± 0.81
328.15 K, 289.9 kPa	654.182 ± 0.81
328.15 K, 897.5 kPa	654.815 ± 0.82
328.15 K, 994.1 kPa	655.012 ± 0.82
328.15 K, 1988.8 kPa	656.162 ± 0.82
328.15 K, 2996.7 kPa	657.408 ± 0.82
328.15 K, 5013.4 kPa	659.794 ± 0.83
328.15 K, 6974.9 kPa	662.023 ± 0.83
328.15 K, 9017 kPa	664.204 ± 0.84
328.15 K, 10040 kPa	665.257 ± 0.84
328.15 K, 24924 kPa	679.489 ± 0.91
328.15 K, 27979 kPa	682.036 ± 0.92
328.15 K, 29958 kPa	683.395 ± 0.93
328.15 K, 32060 kPa	685.102 ± 0.94
328.15 K, 33066 kPa	685.969 ± 0.95
328.15 K, 33107 kPa	685.992 ± 0.95
328.15 K, 34013 kPa	687.01 ± 0.95
328.15 K, 35030 kPa	687.796 ± 0.96
328.15 K, 38010 kPa	690.025 ± 0.97
328.15 K, 39969 kPa	691.415 ± 0.98
328.15 K, 41959 kPa	692.865 ± 1
328.15 K, 44953 kPa	695.094 ± 1
328.15 K, 47978 kPa	697.371 ± 1
328.15 K, 49926 kPa	698.804 ± 1
328.15 K, 51997 kPa	700.259 ± 1.1
328.15 K, 54947 kPa	702.284 ± 1.1
328.15 K, 57939 kPa	704.221 ± 1.1
328.15 K, 59991 kPa	705.64 ± 1.1
328.15 K, 61982 kPa	707.057 ± 1.1
328.15 K, 65032 kPa	708.835 ± 1.1
328.15 K, 66046 kPa	709.499 ± 1.1
328.16 K, 501 kPa	654.211 ± 0.82
328.16 K, 12210 kPa	667.562 ± 0.85
328.16 K, 15055 kPa	670.204 ± 0.86
328.16 K, 18061 kPa	673.216 ± 0.88
328.16 K, 20279 kPa	675.247 ± 0.89
328.16 K, 22013 kPa	676.775 ± 0.89
333.15 K, 100.4 kPa	649.302 ± 0.81
333.15 K, 532.6 kPa	649.653 ± 0.82
333.15 K, 897.8 kPa	650.259 ± 0.82
333.15 K, 1987.2 kPa	651.687 ± 0.82
333.15 K, 3023.4 kPa	653.063 ± 0.82
333.15 K, 4997.4 kPa	655.338 ± 0.83
333.15 K, 7002.4 kPa	657.844 ± 0.83
333.15 K, 9032 kPa	660.047 ± 0.84
333.15 K, 10210 kPa	661.268 ± 0.84
333.15 K, 15008 kPa	666.206 ± 0.86
333.15 K, 22034 kPa	672.882 ± 0.89
333.15 K, 28040 kPa	678.188 ± 0.92
333.15 K, 30016 kPa	679.579 ± 0.93
333.15 K, 32067 kPa	681.185 ± 0.94
333.15 K, 32977 kPa	681.946 ± 0.95
333.15 K, 34086 kPa	683.474 ± 0.96
333.15 K, 35075 kPa	684.235 ± 0.96
333.15 K, 37894 kPa	686.324 ± 0.98
333.15 K, 40111 kPa	687.848 ± 0.99
333.15 K, 41947 kPa	689.191 ± 1
333.15 K, 44974 kPa	691.567 ± 1
333.15 K, 47936 kPa	693.899 ± 1
333.15 K, 49920 kPa	695.372 ± 1
333.15 K, 51953 kPa	696.893 ± 1.1
333.15 K, 54876 kPa	699.008 ± 1.1
333.15 K, 58057 kPa	700.988 ± 1.1
333.15 K, 59993 kPa	702.482 ± 1.1
333.15 K, 62049 kPa	703.927 ± 1.1
333.15 K, 64970 kPa	705.65 ± 1.1
333.15 K, 66005 kPa	706.481 ± 1.1
333.16 K, 303.5 kPa	649.622 ± 0.81
333.16 K, 1003 kPa	650.554 ± 0.82
333.16 K, 12011 kPa	663.322 ± 0.85
333.16 K, 17992 kPa	669.217 ± 0.88
333.16 K, 20036 kPa	671.108 ± 0.89
333.16 K, 25027 kPa	675.678 ± 0.91
333.16 K, 33073 kPa	682.004 ± 0.95
338.15 K, 100.4 kPa	644.915 ± 0.81
338.15 K, 309.8 kPa	645.161 ± 0.82
338.15 K, 561.6 kPa	645.341 ± 0.82
338.15 K, 898.5 kPa	645.924 ± 0.82
338.15 K, 1014.1 kPa	646.212 ± 0.82
338.15 K, 2936.1 kPa	648.694 ± 0.82
338.15 K, 5018.6 kPa	651.205 ± 0.83
338.15 K, 10034 kPa	657.126 ± 0.84
338.15 K, 14885 kPa	662.203 ± 0.86
338.15 K, 17956 kPa	665.481 ± 0.88
338.15 K, 19927 kPa	667.369 ± 0.89
338.15 K, 22041 kPa	669.319 ± 0.9
338.15 K, 25026 kPa	672.169 ± 0.91
338.15 K, 29994 kPa	676.134 ± 0.94
338.15 K, 32882 kPa	678.515 ± 0.95
338.15 K, 33937 kPa	679.921 ± 0.96
338.15 K, 35012 kPa	680.879 ± 0.96
338.15 K, 39987 kPa	684.582 ± 0.99
338.15 K, 41990 kPa	686.092 ± 1
338.15 K, 44978 kPa	688.463 ± 1
338.15 K, 47971 kPa	690.744 ± 1
338.15 K, 49999 kPa	692.38 ± 1.1
338.15 K, 52127 kPa	693.976 ± 1.1
338.15 K, 57940 kPa	697.82 ± 1.1
338.15 K, 60014 kPa	699.459 ± 1.1
338.15 K, 65012 kPa	702.688 ± 1.1
338.15 K, 66057 kPa	703.55 ± 1.1
338.16 K, 2000.2 kPa	647.409 ± 0.82
338.16 K, 6917.3 kPa	653.552 ± 0.83
338.16 K, 9046.9 kPa	656.063 ± 0.84
338.16 K, 11959 kPa	659.361 ± 0.85
338.16 K, 27976 kPa	674.704 ± 0.93
338.16 K, 31949 kPa	677.899 ± 0.95
338.16 K, 32882 kPa	678.499 ± 0.95
338.16 K, 37962 kPa	683.24 ± 0.98
338.16 K, 54992 kPa	696.066 ± 1.1
338.16 K, 62074 kPa	700.918 ± 1.1
343.15 K, 105.1 kPa	640.758 ± 0.82
343.15 K, 297.3 kPa	640.918 ± 0.82
343.15 K, 520.3 kPa	641.218 ± 0.82
343.15 K, 911.7 kPa	641.765 ± 0.82
343.15 K, 1017.7 kPa	641.938 ± 0.82
343.15 K, 1994.6 kPa	643.242 ± 0.82
343.15 K, 2968.3 kPa	644.553 ± 0.82
343.15 K, 4994.8 kPa	647.152 ± 0.83
343.15 K, 6976.6 kPa	649.726 ± 0.83
343.15 K, 9002.6 kPa	652.141 ± 0.84
343.15 K, 10060 kPa	653.267 ± 0.85
343.15 K, 12024 kPa	655.625 ± 0.85
343.15 K, 14928 kPa	658.769 ± 0.87
343.15 K, 17975 kPa	661.975 ± 0.88
343.15 K, 19985 kPa	664 ± 0.89
343.15 K, 22033 kPa	666.001 ± 0.9
343.15 K, 25090 kPa	668.93 ± 0.91
343.15 K, 28045 kPa	671.724 ± 0.93
343.15 K, 30082 kPa	673.379 ± 0.94
343.15 K, 32170 kPa	675.296 ± 0.95
343.15 K, 33053 kPa	676.043 ± 0.96
343.15 K, 33097 kPa	676.076 ± 0.96
343.15 K, 35030 kPa	677.808 ± 0.97
343.15 K, 37943 kPa	680.185 ± 0.98
343.15 K, 40012 kPa	681.817 ± 0.99
343.15 K, 41972 kPa	683.353 ± 1
343.15 K, 44927 kPa	685.751 ± 1
